Our source for the inhibition values is patent publication US6187802A, “Substituted 4-arylmethylene-2-imino-2,3-dihydrothiazoles and derivatives and their pharmaceutical use” (Knoll Aktiengesellschaft, priority 1997, dated 2001).

For assay [1], the target named is T1, 5-hydroxytryptamine (5-HT) reuptake sites (Rattus norvegicus, UniProt P31652).
T1 construct: Frontal cortical tissue from the brains of male Sprague-Dawley rats; from tissue; host or cells: rat brain frontal cortex (crude synaptosomes in A2, washed membranes in A5)
Nature of the assay: displacement of [3H]paroxetine from 5-HT reuptake sites, frontal cortical membranes. The settings on record: 10^-6 M test compound, [3H]paroxetine 30 pM, one test only, read-out: 5-HT uptake (% displacement of specific binding of tritiated ligand). The assay is classed as binding. As for the experimental part: Frontal cortical tissue from the brains of male Charles River rats weighing 150-250 g was homogenised in ice-cold 0.25M sucrose (1:30 w/v) using a Kinematic polytron (speed setting 6 for 30 seconds) and centrifuged at 1000 g for 12 minutes. The supernatant was stored on ice and the pellet was resuspended in 0.25M sucrose (1:20 w/v) and centrifuged at 850 g for 10 minutes. Combined supernatants were diluted to 1:100 w/v with ice-cold 50 mM Tris-HCl, pH 7.5 (at 25° C.) containing 120 mM sodium chloride and 5 mM potassium chloride (Tris buffer) and centrifuged at 40,000 g for 10 minutes. The resulting pellet was resuspended in 50 mM Tris buffer (1:100 w/v) and recentrifuged at 40,000 g for 10 minutes. The final pellet was resuspended in 50 mM Tris buffer (equivalent to 2 mg wet weight of tissue/ml) and used immediately in the binding assay. All centrifugations were carried out at 4° C.
Membranes (1000 μl; equivalent to 2 mg wet weight of tissue/tube) were incubated with 200 μl [^3 H]paroxetine at a single concentration of 30 pM and 200 μl of distilled water (total binding) or 200 μl of test compound (10^-6 M) or 200 μl of citalopram (1 μM; non-specific binding) for 2 h at 22° C.
Membrane bound radioactivity was recovered by filtration under vacuum through Whatman GFIC filters using a Brandel cell harvester. Filters were rapidly washed with 16 ml ice-cold 50 mM Tris buffer and radioactivity determined by liquid scintillation counting (2 ml Packard MV Gold scintillator).
(§1) For each of these tests measuring the ability of compounds of Formula I to displace standard ligands from dopamine (DA), 5-hydroxytryptamine (5-HT) and noradrenaline (NA) reuptake sites in vitro, the percentage displacement of specific binding of tritiated ligand by 10^-6 M test compound was calculated in the following way:
(§2) Firstly, specific binding of tritiated ligand in the absence (A) and presence (B) of test compound was determined:
(§3) In the absence of compound:
(§4) A (dpm)=Total binding (dpm)-Non-specific binding (dpm)
(§5) In the presence of compound (10^-6 M):
(§6) B (dpm)=Binding at 10^-6 M (dpm)-Non-specific binding (dpm)
(§7) The specific binding of tritiated ligand in the presence (B) of compound was then converted to a percentage of specific binding of tritiated ligand in the absence (A) of compound:
(§8) % Specific binding at 10^-6 M=B (dpm)/A(dpm)×100
(§9) The percentage displacement of specific binding of trtiated ligand by the test compound (10^-6 M) was then obtained by subtraction of the percentage specific binding in the presence of compound from the percentage specific binding in the absence of compound, which is taken as the maximum binding and so equals 100%:
(§10) % Displacement at 10^-6 M=100-% Specific binding at 10^-6 M.
(§11) The values given below in Table 2 for examples 6 to 76 are % displacement of specific binding of tritiated ligand by 10^-6 M test compound and represent results from one test only. IA refers to <50% displacement.
A general note: Loss of bound radioactivity is the signal in a displacement assay; it reports binding, not function.

Assay [2] concerns the target T2, noradrenaline (NA) reuptake sites (Rattus norvegicus, UniProt Q63380).
T2 construct: Frontal cortical tissue from the brains of male Sprague-Dawley rats; from tissue; host or cells: rat brain frontal cortex (crude synaptosomes in A3, washed membranes in A6)
Put plainly: displacement of [3H]nisoxetine from noradrenaline reuptake sites, frontal cortical membranes. The conditions noted are these: 10^-6 M test compound, [3H]nisoxetine 0.6 nM, one test only, read-out: NA uptake (% displacement of specific binding of tritiated ligand). As for the experimental part: Frontal cortical tissue from the brains of male Charles River rats weighing 150-250 g was homogenised in ice-cold 50 mM Tris-HCl, pH 7.4 (at 25° C.) containing 120 mM sodium chloride and 5 mM potassium chloride (Tris buffer; 1:60 w/v) using a Kinematic polytron (speed setting 6 for 30 seconds) and centrifuged at 40,000 g for 10 minutes. The supernatant was discarded and the pellet rehomogenised in Tris buffer, 1:60 w/v, and centrifuged at 40,000 g for 10 minutes. This step was repeated twice more so that, in total, the brain tissue was homogenised and centrifuged four times. The final pellet was resuspended in 50 mM Tris-HCl, pH 7.4 containing 300 mM sodium chloride and 5 mM potassium chloride (equivalent to 25 mg wet weight of tissue/ml) and used immediately in the binding assay. All centrifugations were performed at 4° C.
Membranes (400 μl; equivalent to 10 mg wet weight of tissue/tube) were incubated with 50 μl [^3 H]nisoxetine at a single concentration of 0.6 nM and 50 μl of distilled water (total binding) or 50 μl of test compound (10^-6 M) or 50 μl of mazindol (1 μM; non-specific binding) for 4 h at 4° C.
Membrane bound radioactivity was recovered by filtration under vacuum through Skatron 11734 filters using a Skatron cell harvester. Filters were rapidly washed with ice-cold 50 mM Tris-HCl, pH 7.4 containing 120 mM sodium chloride and 5 mM potassium chloride (wash setting 9,9,0) and radioactivity determined by liquid scintillation counting (1 ml Packard MV Gold scintillator).
as §1, §2, §3, §4, §5, §6, §7, §8, §9, §10, §11

Assay [3] deals with T3, dopamine (DA) reuptake sites (Rattus norvegicus, UniProt P23977).
T3 construct: Striatal tissue from the brains of male Charles River rats weighing 150-250 g; from tissue; host or cells: rat brain striatum (crude synaptosomes in A1, washed membranes in A4)
Nature of the assay: displacement of [3H]GBR 12935 from dopamine reuptake sites, striatal membranes. In kind it is binding. The conditions noted are these: 10^-6 M test compound, [3H]GBR 12935 1 nM, one test only, read-out: DA uptake (% displacement of specific binding of tritiated ligand). How it is done: Striatal tissue from the brains of male Charles River rats weighing 150-250 g was homogenised in ice-cold 0.32M sucrose (1:80 w/v) using a motor driven teflon pestle (12 strokes, 800 rpm) and centrifuged at 1000 g for 12 minutes. The supernatant was stored on ice and the pellet was resuspended in 0.32M sucrose (1:80 w/v) and centrifuged at 850 g for 10 minutes. Combined supernatants were diluted to 1:320 w/v with ice-cold 50 mM Tris-HCl, pH 7.4 (at 25° C.) containing 200 mM sodium chloride and 5 mM potassium chloride (Tris buffer) and centrifuged at 40,000 g for 10 minutes. The resulting pellet was resuspended in 10 ml of 50 mM Tris buffer, incubated at 37° C. for 10 min, diluted in 50 mM Tris buffer (1:320 w/v) and recentrifuged at 40,000 g for 10 minutes. The final pellet was resuspended in 50 mM Tris buffer (equivalent to 1.25 mg wet weight of tissue/ml) and used immediately in the binding assay. All centrifugations were carried out at 4° C.
Membranes (800 μl; equivalent to 1 mg wet weight of tissue/tube) were incubated with 100 μl [^3 H]GBR 12935 at a single concentration of 1 nM and 100 μl of distilled water (total binding) or 100 μl of test compound (10^-6 M) or 100 μl of mazindol (1 μM; non-specific binding) for 90 min at 4° C.
Membrane bound radioactivity was recovered by filtration under vacuum through Whatman GF/C filters, pre-soaked for 1 h in 0.5% polyethylenimine,using a Brandel cell harvester. Filters were rapidly washed with 16 ml of ice-cold 50 mM Tris-HCl, pH 7.4 and radioactivity determined by liquid scintillation counting (2 ml Packard MV Gold scintillator).
as §1, §2, §3, §4, §5, §6, §7, §8, §9, §10, §11

Counter-ions that a name gives are not always drawn. Where only a bound is given, the exact number is not on record here.

T1 sequence (P31652 whole entry): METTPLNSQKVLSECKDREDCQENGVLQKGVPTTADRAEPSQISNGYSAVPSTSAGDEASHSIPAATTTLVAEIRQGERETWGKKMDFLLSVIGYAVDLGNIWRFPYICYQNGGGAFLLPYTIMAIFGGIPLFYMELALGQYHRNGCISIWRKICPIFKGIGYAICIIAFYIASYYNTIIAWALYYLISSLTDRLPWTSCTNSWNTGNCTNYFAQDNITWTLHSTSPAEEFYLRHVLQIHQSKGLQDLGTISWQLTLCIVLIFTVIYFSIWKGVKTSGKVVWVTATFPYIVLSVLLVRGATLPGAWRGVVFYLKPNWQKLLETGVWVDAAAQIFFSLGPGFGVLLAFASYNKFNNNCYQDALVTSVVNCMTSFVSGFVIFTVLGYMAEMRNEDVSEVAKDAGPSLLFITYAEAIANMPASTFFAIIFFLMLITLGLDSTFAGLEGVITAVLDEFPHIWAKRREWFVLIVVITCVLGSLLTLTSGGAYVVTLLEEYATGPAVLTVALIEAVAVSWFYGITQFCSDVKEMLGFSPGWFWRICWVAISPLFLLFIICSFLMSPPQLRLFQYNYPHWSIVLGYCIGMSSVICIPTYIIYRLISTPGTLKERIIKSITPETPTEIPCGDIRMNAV
T3 sequence (P23977 whole entry): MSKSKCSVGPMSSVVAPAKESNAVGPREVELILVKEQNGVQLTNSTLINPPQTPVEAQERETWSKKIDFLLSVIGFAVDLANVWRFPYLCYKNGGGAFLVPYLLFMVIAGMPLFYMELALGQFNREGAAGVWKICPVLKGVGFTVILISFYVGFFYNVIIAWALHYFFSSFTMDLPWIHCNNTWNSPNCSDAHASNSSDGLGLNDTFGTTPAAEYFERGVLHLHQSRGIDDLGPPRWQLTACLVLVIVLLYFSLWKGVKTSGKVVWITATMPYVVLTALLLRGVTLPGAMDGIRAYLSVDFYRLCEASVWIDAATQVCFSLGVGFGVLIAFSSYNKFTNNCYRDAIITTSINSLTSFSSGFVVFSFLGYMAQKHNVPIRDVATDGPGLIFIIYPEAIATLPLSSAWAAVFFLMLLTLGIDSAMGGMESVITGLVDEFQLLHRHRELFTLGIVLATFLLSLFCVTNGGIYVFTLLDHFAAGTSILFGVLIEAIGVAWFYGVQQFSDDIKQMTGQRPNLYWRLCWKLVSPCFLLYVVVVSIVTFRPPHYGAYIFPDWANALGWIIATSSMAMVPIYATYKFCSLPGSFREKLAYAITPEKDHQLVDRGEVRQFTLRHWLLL
T2 sequence (Q63380 1-617): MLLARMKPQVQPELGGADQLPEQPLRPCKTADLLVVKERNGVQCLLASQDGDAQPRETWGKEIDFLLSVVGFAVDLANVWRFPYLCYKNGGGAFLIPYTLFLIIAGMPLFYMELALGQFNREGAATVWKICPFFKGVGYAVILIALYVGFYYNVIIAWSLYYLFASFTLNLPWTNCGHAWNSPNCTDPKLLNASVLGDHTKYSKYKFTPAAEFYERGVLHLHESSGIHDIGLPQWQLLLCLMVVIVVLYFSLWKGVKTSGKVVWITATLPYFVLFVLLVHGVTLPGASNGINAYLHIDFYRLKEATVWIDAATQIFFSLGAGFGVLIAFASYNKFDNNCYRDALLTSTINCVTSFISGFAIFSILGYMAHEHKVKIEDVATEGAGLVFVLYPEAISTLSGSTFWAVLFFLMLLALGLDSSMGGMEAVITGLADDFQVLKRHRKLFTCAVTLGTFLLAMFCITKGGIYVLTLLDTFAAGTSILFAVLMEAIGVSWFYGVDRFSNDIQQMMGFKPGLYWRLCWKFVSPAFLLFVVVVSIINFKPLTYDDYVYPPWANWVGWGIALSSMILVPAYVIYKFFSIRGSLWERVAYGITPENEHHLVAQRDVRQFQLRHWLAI

For the compound `C=CCN=c1scc(C2(c3ccc(Cl)c(Cl)c3)CCC2)n1CC=C` [Example 20, 3-Allyl-2-allylimino-4-[1-(3,4-dichlorophenyl)cyclobutyl]-2,3-dihydrothiazole hydrobromide], the inhibition at 1 µM is 104% in assay [1], 91% in assay [2] and 105% in assay [3].

Regarding `C=CCN=c1scc(C2(c3ccc4ccccc4c3)CCC2)n1CC=C` [Example 42, 3-Allyl-2-allylimino-4-[1-(2-naphthyl)cyclobutyl]-2,3-dihydrothiazole hydrobromide], the inhibition at 1 µM in assay [1] came to 101%; in assay [2], 93%; in assay [3], 113%.

Consider `c1ccc(N=c2scc(C3(c4ccc5ccccc5c4)CCC3)n2-c2ccccc2)cc1` [Example 49, 4-[1-(2-Naphthyl)cyclobutyl]-3-phenyl-2-phenylimino-2,3-dihydrothiazole hydrobromide], for which the inhibition at 1 µM in assay [1] is 56%; in assay [2] it was < 50%; in assay [3], 69%.

Turning to `Cc1ccc(N=c2scc(C3(c4ccc5ccccc5c4)CCC3)n2-c2ccc(C)cc2)cc1` [Example 50, 4-[1-(2-Naphthyl)cyclobutyl]-3-(p-tolyl)-2-(p-tolylimino)-2,3-dihydrothiazole hydrobromide], the results for the inhibition at 1 µM in assay [1], in assay [2] and in assay [3] were < 50%, < 50% and 68%, respectively.

Turning to `c1ccc2cc(C3(c4csc(=NCC5CC5)n4CC4CC4)CCC3)ccc2c1` [Example 43, 3-Cyclopropylmethyl-2-cyclopropylmethylimino4-[1-(2-naphthyl)cyclobutyl]-2,3-dihydrothiazole hydrobromide], the inhibition at 1 µM in assay [1] was 101%; in assay [2] it was 93%; in assay [3], 113%.

For `CC(C)N=c1scc(C2(c3ccc(Cl)c(Cl)c3)CCC2)n1C(C)C` [Example 17, 4-[1-(3,4-Dichlorophenyl)cyclobutyl]-3-isopropyl-2-isopropylimino-2,3-dihydrothiazole hydrobromide], the inhibition at 1 µM in assay [1] was determined as 95%; in assay [2] it was 63%; in assay [3], 112%.

Take `CC(C)CN=c1scc(C2(c3ccc4ccccc4c3)CCC2)n1CC(C)C` [Example 41, 3-lsobutyl-2-isobutylimino-4-[1-(2-naphthyl)cyclobutyl]-2,3-dihydrothiazolehydrobromide]: the figures for the inhibition at 1 µM in assay [1], in assay [2] and in assay [3] were 98%, 79% and 107%, respectively.

Consider `Clc1ccc(C2(c3csc(=NCc4ccccc4)n3Cc3ccccc3)CCC2)cc1Cl` [Example 22, 3-Benzyl-2-benzylimino-4-[1-(3,4-dichlorophenyl)cyclobutyl]-2,3-dihydrothiazole hydrobromide], for which the results for the inhibition at 1 µM in assay [1], in assay [2] and in assay [3] were < 50%, < 50% and 79%, respectively.

In the case of `CC(C)(C1=CSC2=NCCN12)c1ccc(Cl)c(Cl)c1` [Example 11, 3-[1-(3,4-dichlorophenyl)-1-methylethyl]-5,6-dihydroimidazo[2,1-b]-thiazole hydrobromide], the inhibition at 1 µM in assay [1] is 57%; in assay [2], < 50%; in assay [3], 102%.

Turning to `CCCCN=c1scc(C2(c3ccc(SC)cc3)CCC2)n1CCCC` [Example 58, 3-Butyl-2-butylimino-4-[1-(4-methylthiophenyl)cyclobutyl]-2,3-dihydrothiazole hydrobromide], the values for the inhibition at 1 µM in assay [1], in assay [2] and in assay [3] were < 50%, < 50% and 92%, respectively.

On to `c1ccc2cc(C3(c4csc(=NC5CCCC5)n4C4CCCC4)CCC3)ccc2c1` [Example 53, 3-Cyclopentyl-2-cyclopentylimino-4-[1-(2-naphthyl)cyclobutyl]-2,3-dihydrothiazole hydrobromide], for which the inhibition at 1 µM in assay [1] is 71%; in assay [2], < 50%; in assay [3], 80%.

With `Cc1ccc(N=c2scc(C3(c4ccc(Cl)c(Cl)c4)CCC3)n2-c2ccc(C)cc2)cc1` [Example 28, 4-[1-(3,4-Dichlorophenyl)cyclobutyl]-3-(p-tolyl)-2-(ptolylimino)-2,3-dihydrothiazole hydrobromide], the figures for the inhibition at 1 µM in assay [1], in assay [2] and in assay [3] were < 50%, < 50% and 71%, respectively.

Consider `Clc1ccc(C2(C3=C(c4ccccc4)SC4=NCCN43)CCC2)cc1Cl` [Example 9, 3-[1-(3,4-dichlorophenyl)cyclobutyl]-2-phenyl-5,6-dihydroimidazo[2,1-b]thiazole hydrobromide], for which the inhibition at 1 µM in assay [1] is 75%; in assay [2], < 50%; in assay [3], 60%.

As to `CCOc1ccc(N=c2scc(C3(c4ccc(Cl)c(Cl)c4)CCC3)n2-c2ccc(OCC)cc2)cc1` [Example 32, 4-[1-(3,4-Dichlorophenyl)cyclobutyl]-3-(4-ethoxyphenyl)-2-(4-ethoxyphenylimino)-2,3-dihydrothiazole hydrobromide], the inhibition at 1 µM in assay [1] is < 50%; in assay [2], < 50%; in assay [3], 69%.
